Assays:
Botrytis cinerea [1] = assay: Color change diameter on bromcresol purple media containing vinclozolin (Example 2); format: cell-based; conditions: resistant isolates of Botrytis cinerea only; water dextrose media; after 4 days
Botrytis cinerea [2] = assay: Spore germination on agar-dextrose medium containing vinclozolin, microscopic examination (Example 1); format: cell-based; conditions: 18 hours room temperature
Protocol: Resistant and sensitive fungi were initially obtained from crops of cultivated fruit in the field. The percent germination reported below was calculated by microscopic evaluation. An average of four fields of view per plate was examined with each field of view having a total of about 100 to 300 spores. The total number of spores in each field of view was counted then either the number germinated or not germinated, whichever was easiest to count, was determined. These numbers were then combined appropriately and the percent germination calculated. Unless otherwise noted, resistant isolates are given a numerical designation and sensitive isolates a letter designation.
Botrytis cinerea of known sensitivity and resistance to vinclozolin were cultured on potato dextrose agar prepared according to manufacturer's directions and Preparation Example 2 for 2 weeks and induced to sporulate under long wave ultraviolet light. Spores were transferred using a sterile cotton tipped swab to a solid medium containing 20 g of agar, 20 g dextrose and the amount of vinclozolin in parts per million per liter of media shown in Table 1 below. The innoculated media was incubated at room temperature for 18 hours and microscopically examined for germination; the results of this assay are set forth below in Table 1 where "BC" means Botrytis cinerea.

## C=CC1(C)OC(=O)N(c2cc(Cl)cc(Cl)c2)C1=O (stereo not shown) [vinclozolin]
Botrytis cinerea [1]
  diameter color reaction: 25 mm
Botrytis cinerea [2]; isolate BC-1 resistant, vinclozolin 2.5 ppm
  Percent Germination: 100%
Botrytis cinerea [2]; isolate BC-1 resistant, vinclozolin 5.0 ppm
  Percent Germination: 100%
Botrytis cinerea [2]; isolate BC-1 resistant, vinclozolin 10.0 ppm
  Percent Germination: 100%
Botrytis cinerea [2]; isolate BC-2 res., vinclozolin 2.5 ppm
  Percent Germination: 100%
Botrytis cinerea [2]; isolate BC-2 res., vinclozolin 5.0 ppm
  Percent Germination: 100%
Botrytis cinerea [2]; isolate BC-2 res., vinclozolin 10.0 ppm
  Percent Germination: 100%
Botrytis cinerea [2]; isolate BC-3 res., vinclozolin 2.5 ppm
  Percent Germination: 100%
Botrytis cinerea [2]; isolate BC-3 res., vinclozolin 5.0 ppm
  Percent Germination: 90%
Botrytis cinerea [2]; isolate BC-3 res., vinclozolin 10.0 ppm
  Percent Germination: 80%
Botrytis cinerea [2]; isolate BC-4 res., vinclozolin 2.5 ppm
  Percent Germination: 100%
Botrytis cinerea [2]; isolate BC-4 res., vinclozolin 5.0 ppm
  Percent Germination: 100%
Botrytis cinerea [2]; isolate BC-4 res., vinclozolin 10.0 ppm
  Percent Germination: 100%
Botrytis cinerea [2]; isolate BC-5 res., vinclozolin 2.5 ppm
  Percent Germination: 100%
Botrytis cinerea [2]; isolate BC-5 res., vinclozolin 5.0 ppm
  Percent Germination: 100%
Botrytis cinerea [2]; isolate BC-5 res., vinclozolin 10.0 ppm
  Percent Germination: 90%
Botrytis cinerea [2]; isolate BC-6 res., vinclozolin 2.5 ppm
  Percent Germination: 100%
Botrytis cinerea [2]; isolate BC-6 res., vinclozolin 5.0 ppm
  Percent Germination: 100%
Botrytis cinerea [2]; isolate BC-6 res., vinclozolin 10.0 ppm
  Percent Germination: 100%
Botrytis cinerea [2]; isolate BC-A sensitive, vinclozolin 2.5 ppm
  Percent Germination: 0%
Botrytis cinerea [2]; isolate BC-A sensitive, vinclozolin 5.0 ppm
  Percent Germination: 0%
Botrytis cinerea [2]; isolate BC-A sensitive, vinclozolin 10.0 ppm
  Percent Germination: 0%
Botrytis cinerea [2]; isolate BC-B sens., vinclozolin 2.5 ppm
  Percent Germination: 0%
Botrytis cinerea [2]; isolate BC-B sens., vinclozolin 5.0 ppm
  Percent Germination: 0%
Botrytis cinerea [2]; isolate BC-B sens., vinclozolin 10.0 ppm
  Percent Germination: 0%
Botrytis cinerea [2]; isolate BC-C sens., vinclozolin 2.5 ppm
  Percent Germination: 0%
Botrytis cinerea [2]; isolate BC-C sens., vinclozolin 5.0 ppm
  Percent Germination: 0%
Botrytis cinerea [2]; isolate BC-C sens., vinclozolin 10.0 ppm
  Percent Germination: 0%
Botrytis cinerea [2]; isolate BC-D sens., vinclozolin 2.5 ppm
  Percent Germination: 0%
Botrytis cinerea [2]; isolate BC-D sens., vinclozolin 5.0 ppm
  Percent Germination: 0%
Botrytis cinerea [2]; isolate BC-D sens., vinclozolin 10.0 ppm
  Percent Germination: 0%
